According to patent US20220119355A1, “SATURATED-RING-FUSED DIHYDROPYRIMIDINONE OR DIHYDROTRIAZINONE COMPOUNDS AND PHARMACEUTICAL USE THEREOF” (Japan Tobacco Inc., priority 2018, published 2022):

Columns and labels:
Type in all cases: cell-based
human RORγ [1] = biological target: T1, human RORγ (Homo sapiens, UniProt P51449); experiment: In-vitro reporter gene assay for inhibitory activity against RORγ transcription, Test Method B (pFA/hRORγ LBD / pG5-Luc in CHO cells); conditions: for EC50: luciferase reporter, CHO cells, 2 days
T1 construct: from Ser253 to Lys518 for human RORγ; expressed in transfected cells; host or cells: CHO cells (transient co-transfection with pG5-Luc)
T1 sequence (P51449 253-518): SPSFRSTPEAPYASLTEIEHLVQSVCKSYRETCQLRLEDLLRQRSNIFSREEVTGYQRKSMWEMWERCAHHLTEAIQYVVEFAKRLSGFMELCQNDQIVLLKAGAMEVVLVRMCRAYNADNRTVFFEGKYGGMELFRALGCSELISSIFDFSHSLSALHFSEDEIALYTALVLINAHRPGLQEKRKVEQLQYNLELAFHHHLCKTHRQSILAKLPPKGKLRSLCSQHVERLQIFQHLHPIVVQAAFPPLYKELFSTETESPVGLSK
Experimental: (§1) In-Vitro Assay for Inhibitory Activity Against RORγ Transcription
(§2) Inhibitory activity against RORγ transcription was assessed for test compounds by either of the following Test Method A or B of reporter gene assay.
(§3) cDNAs encoding human and mouse RORγ ligand binding domains (LBD) were obtained based on the sequences of human RORγ (Genbank registered number NM_005060.3) and mouse RORγ (Genbank registered number NM_011281.2) (LBD sequences: from Ser253 to Lys518 for human RORγ; from Ile251 to Lys516 for mouse RORγ).
(§4) LBD cDNAs of human and mouse RORγ were inserted into pFA-CMV vector (Agilent Technologies, Inc.), which expresses GAL4-DNA binding domain fusion protein. The resulting plasmids are hereinafter referred to as pFA/hRORγ plasmid and pFA/mRORγ plasmid, respectively.
(§5) pFA/hRORγ plasmid or pFA/mRORγ plasmid was transiently co-transfected into Chinese hamster ovary cells (CHO cells) with pG5-Luc (Promega), reporter plasmid expressing firefly luciferase in a GAL4-dependent manner.
(§6) TransIT (Registered trademark) CHO Transfection Kit (Mirus) was used to co-transfect CHO cells with the plasmids. One day prior to the assay, CHO cells were suspended in HAM F-12 Nutrient medium containing 10% (v/v) fetal bovine serum and seeded at 5.5×10^6 cells per 225 cm^2 cell culture flask each. 72 μL of TransIT (Registered trademark) CHO reagent was added into a 2 mL tube containing 1.55 mL of Opti-MEM, and then mixed and incubated at room temperature for 10 minutes. 50.4 μL of a plasmid solution containing 300 ng of pFA/hRORγ plasmid, 12000 ng of pG5-Luc plasmid, and 11700 ng of pcDNA3.1 plasmid were added into the tube and mixed gently. In the case of mouse assay, a plasmid solution containing 300 ng of pFA/mRORγ plasmid, 12000 ng of pG5-Luc plasmid, and 11700 ng of pcDNA3.1 plasmid was added, instead. The mixture was incubated at room temperature for 10 minutes. 12 μL each of CHO Mojo Reagent were then added into each tube and mixed gently. The mixture was incubated at room temperature for 10 minutes. The resulting transfection reagent was applied to the cell culture. After incubation at 37° C., 5% CO2 for 4 hours, the plasmid-transfected CHO cells were harvested by trypsin treatment. The collected cells were resuspended in culture medium and plated into a 384-well-white plate at 8,000 cells/35 μL/well. The plate was let stand at room temperature for 1 hour and then further incubated at 37° C., 5% CO2 for 3 hours. A test compound was dissolved in dimethyl sulfoxide (DMSO) to obtain a concentration of 10 mM. Each solution was serially diluted with DMSO and further diluted with culture medium just before use. The test compound solutions were added to the cells in the plate at 6 different concentrations. The final concentration of DMSO was 0.2% (v/v). After the addition of test compound, the cells were incubated at 37° C., 5% CO2 for 2 days.
(§7) RORγ transcriptional activity was detected as the intracellular luciferase activity using SteadyLite HTS Reporter Gene Assay System (Perkin Elmer). SteadyLite Reagent was diluted 2.5-fold with Extension buffer (10 mM Tricine, 0.2% (w/v) bovine serum albumin, 0.02% (v/v) Tween-20) to obtain a luciferase substrate solution. Two days after the addition of test compound, 40 μL each of the luciferase substrate solution was added into the 384-well-plate. After the incubation at room temperature for 10 minutes, luminescence of each well was measured with a microplate reader. The luciferase activity derived from the luminescence count in a vehicle-control well treated with 0.2% DMSO alone was defined as 100%, and the luciferase activity after treatment of the test compound was calculated as a percentage, %-of-control, based on the value of the vehicle-control. An EC50 value of the test compound was calculated by curve fitting. The luminescence counts at the concentration of test compound where cytotoxicity was observed were excluded from data analysis. […]

mouse RORγ [2] = biological target: T2, mouse RORγ (Mus musculus, UniProt P51450); experiment: In-vitro reporter gene assay for inhibitory activity against RORγ transcription, Test Method B (pFA/mRORγ LBD / pG5-Luc in CHO cells); conditions: for EC50: luciferase reporter, CHO cells, 2 days
T2 construct: from Ile251 to Lys516 for mouse RORγ; expressed in transfected cells; host or cells: CHO cells (transient co-transfection with pG5-Luc)
T2 sequence (P51450 251-516): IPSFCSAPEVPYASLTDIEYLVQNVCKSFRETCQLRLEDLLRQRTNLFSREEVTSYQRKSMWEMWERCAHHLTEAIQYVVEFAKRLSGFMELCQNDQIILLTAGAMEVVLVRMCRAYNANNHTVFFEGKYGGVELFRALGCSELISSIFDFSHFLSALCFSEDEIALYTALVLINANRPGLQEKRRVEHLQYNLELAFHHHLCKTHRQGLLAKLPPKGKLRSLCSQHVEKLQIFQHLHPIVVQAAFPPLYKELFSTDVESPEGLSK
Experimental: as §1, §2, §3, §4, §5, §6, §7

human RORγ [3] = biological target: T1, human RORγ; experiment: In-vitro reporter gene assay for inhibitory activity against RORγ transcription, Test Method A (GAL4-hRORγ LBD / pG5-Luc in CHO cells); conditions: luciferase reporter, 2 days
Experimental: as §1, §2, §3
(§8) LBD cDNAs of human and mouse RORγ were inserted into pFA-CMV vector (Stratagene), which expresses GAL4-DNA binding domain fusion protein. The resulting plasmids are hereinafter referred to as GAL4-hRORγ plasmid and GAL4-mRORγ plasmid, respectively.
(§9) GAL4-hRORγ plasmid or GAL4-mRORγ plasmid was transiently co-transfected into Chinese hamster ovary cells (CHO cells) with pG5-Luc (Promega), reporter plasmid expressing firefly luciferase in a GAL4-dependent manner.
(§10) TransIT (Registered trademark) CHO Transfection Kit (Mirus) was used to co-transfect CHO cells with the plasmids. One day prior to the assay, CHO cells were suspended in HAM F-12 Nutrient medium containing 10% (v/v) fetal bovine serum and seeded at 6×10^6 cells per 175 cm^2 cell culture flask each. 54 μL of TransIT (Registered trademark) CHO reagent was added into a 15 mL tube containing 1.16 mL of HAM F-12 Nutrient medium without fetal bovine serum, and then mixed and incubated at room temperature for 10 minutes. 36 μL of a plasmid solution containing 400 ng of GAL4-hRORγ plasmid, 9000 ng of pG5-Luc plasmid, and 8600 ng of pcDNA3 plasmid were added into the tube and mixed gently. In the case of mouse assay, a plasmid solution containing 250 ng of GAL4-mRORγ plasmid, 9000 ng of pG5-Luc plasmid, and 8750 ng of pcDNA3 plasmid was added, instead. The mixture was incubated at room temperature for 10 minutes. 9 μL each of CHO Mojo Reagent were then added into each tube and mixed gently. The mixture was incubated at room temperature for 10 minutes. The resulting transfection reagent was applied to the cell culture. After incubation at 37° C., 5% CO2 for 4 hours, the plasmid-transfected CHO cells were harvested by trypsin treatment. The collected cells were resuspended in culture medium and plated into a 384-well-white plate at 8,000 cells/50 μL/well. The plate was let stand at room temperature for 1 hour and then further incubated at 37° C., 5% CO2 for 3 hours. A test compound was dissolved in DMSO to obtain a concentration of 10 mM. Each solution was serially diluted with DMSO and further diluted with culture medium just before use. The test compound solutions were added. to the cells in the plate at 8 different concentrations. The final concentration of DMSO was 0.2% (v/v). After the addition of test compound, the cells were incubated at […], 5% CO2 for 2 days.
(§11) RORγ transcriptional activity was detected as the intracellular luciferase activity using SteadyLite HTS Reporter Gene Assay System (Perkin Elmer). SteadyLite Reagent was diluted five-fold with Extension buffer (10 mM Tricine, 0.2% (w/v) bovine serum albumin, 0.02% (v/v) Tween-20) to obtain a luciferase substrate solution. After the measurement of the cell viability with Resazurin, the medium was removed in the plate and the luciferase substrate solution was added thereto. After the incubation at room temperature for 10 minutes, luminescence of each well was measured with a microplate reader. The luciferase activity derived from the luminescence count in a vehicle-control well treated with 0.2% DMSO alone was defined as 100%, and the luciferase activity after treatment with the test compound was calculated as a percentage, %-of-control, based on the value of the vehicle-control. An EC50 value of the test compound was calculated by curve fitting with GraphPad Prism. The luminescence counts at the concentration of test compound where cytotoxicity was observed were excluded from data analysis. […]

mouse RORγ [4] = biological target: T2, mouse RORγ; experiment: In-vitro reporter gene assay for inhibitory activity against RORγ transcription, Test Method A (GAL4-mRORγ LBD / pG5-Luc in CHO cells); conditions: luciferase reporter, 2 days
Experimental: as §1, §2, §3, §8, §9, §10, §11

[5] = vehicle-control 0.2% DMSO = 100%

Row | SMILES | EC50 (human RORγ [1]) [µM] | hRORγ luciferase activity after treatment with test compound, %-of-control (human RORγ [1]; [5]) | EC50 (mouse RORγ [2]) [µM] | mRORγ luciferase activity after treatment with test compound, %-of-control (mouse RORγ [2]; [5]) | EC50 (human RORγ [3]) [µM] | EC50 (mouse RORγ [4]) [µM]
1 | CC(C)(C)CCc1ccc([C@]23CCCCC2=CN(CCC(=O)O)C(=O)N3)cc1Cl (single isomer, unassigned) [Example 40] |  |  |  |  | 4.64 | 5.33
2 | C[C@H]1CC2=CN(CCC(=O)O)C(=O)NC2(c2ccc(CCC(C)(C)C)c(Cl)c2)CO1 (single isomer, unassigned) [Example 70] |  |  |  |  | 0.541 | 0.516
3 | CC(C)(C)CCc1ccc(C23COC(COC(C)(C)C)C2=CN(CCC(=O)O)C(=O)N3)cc1Cl (single isomer, unassigned) [Example 21] |  |  |  |  | 2.26 | 1.27
4 | CCOC(=O)CCN1C=C2C(CCNC)CCCC2(c2ccc(CCC(C)(C)C)c(Cl)c2)NC1=O (racemic) [Example 49] |  |  |  |  | > 3.2 | > 3.2
5 | CC(C)(C)CCc1ccc(C23CCCC(CC#N)C2=CN(CCC(=O)O)C(=O)N3)cc1Cl (racemic) [Example 52] |  |  |  |  | 0.018 | 0.029
6 | CC1CCC[C@]2(c3ccc(CCC(C)(C)C)c(Cl)c3)NC(=O)N(C34CC(C(=O)O)(C3)C4)C=C12 (single isomer, unassigned) [Example 78] |  |  |  |  | 2.2 | > 3.2
7 | CC(=O)N1CC2=CN(CCC(=O)O)C(=O)NC2(c2ccc(CCC(C)(C)C)c(Cl)c2)C1 (racemic) [Example 14] |  |  |  |  | 2.88 | 3.8
8 | CC(C)(C)CCc1ccc(C23CC(C)(C)CC2=CN(CCC(=O)O)C(=O)N3)cc1Cl (single isomer, unassigned) [Example 32] |  |  |  |  | 0.021 | 0.018
9 | CC(C)(C)CCc1ccc(C23CCC(C)(C)C2=CN(CCC(=O)O)C(=O)N3)cc1Cl (single isomer, unassigned) [Example 3, 3-{7a-[3-Chloro-4-(3,3-dimethyl-butyl)phenyl]-5,5-dimethyl-2-oxo-1,2,5,6,7,7a-hexahydro-cyclopentapyrimidin-3-yl}propionate] |  |  |  |  | 0.008 | 0.013
10 | CN(C)CCC1CCC2(c3ccc(CCC(C)(C)C)c(Cl)c3)NC(=O)N(CCC(=O)O)C=C12 (single isomer, unassigned) [Example 28] |  |  |  |  | > 20 | > 20
11 | CC(C)(C)CCc1ccc([C@]23COC(COCc4ccccc4)C2=CN(CCC(=O)O)C(=O)N3)cc1Cl (single isomer, unassigned) [Example 15] |  |  |  |  | > 8 | > 8
12 | COCC1OC[C@]2(c3ccc(CCC(C)(C)C)c(Cl)c3)NC(=O)N(CCC(=O)O)C=C12 (single isomer, unassigned) [Example 19] |  |  |  |  | 17.1 | 15.6
13 | C[C@@H]1CCC2(c3ccc(CCC(C)(C)C)c(Cl)c3)NC(=O)N(CCC(=O)O)C=C12 (single isomer, unassigned) [Example 11] |  |  |  |  | 0.021 | 0.022

Continued, values first:

Row | EC50 (human RORγ [1]) [µM] | hRORγ luciferase activity after treatment with test compound, %-of-control (human RORγ [1]; [5]) | EC50 (mouse RORγ [2]) [µM] | mRORγ luciferase activity after treatment with test compound, %-of-control (mouse RORγ [2]; [5]) | EC50 (human RORγ [3]) [µM] | EC50 (mouse RORγ [4]) [µM] | SMILES
14 | > 10 | (84%) | > 10 | (84%) |  |  | CC(C)Oc1ccc(C23CCCCC2=CN(CCC(=O)O)C(=O)N3)cc1Cl (racemic) [Example 96]
15 | 0.044 |  | 0.101 |  |  |  | C[C@H]1CCC2(c3ccc(C4C(C(C)(C)C)C4(F)F)c(Cl)c3)NC(=O)N(C34CCC(C(=O)O)(C3)C4)C=C2[C@@H]1C (single isomer, unassigned) [Example 116]
16 |  |  |  |  | > 10 | > 10 | CC1CC[C@]2(c3ccc(CCC(C)(C)C)c(Cl)c3)NC(=O)N(CCC(=O)O)C=C2C1 (single isomer, unassigned) [Example 80]
17 |  |  |  |  | 0.014 | 0.018 | CC(C)(C)CCc1ccc([C@@]23CCC(C)(C)CC2=CN(CCC(=O)O)C(=O)N3)cc1Cl (single isomer, unassigned) [Example 83]
18 |  |  |  |  | 0.018 | 0.022 | CC1CCC[C@@]2(c3ccc(CCC(C)(C)C)c(Cl)c3)NC(=O)N(C34CC(C(=O)O)(C3)C4)C=C12 (single isomer, unassigned) [Example 79]
19 |  |  |  |  | 0.013 | 0.019 | CC1CC[C@@]2(c3ccc(CCC(C)(C)C)c(Cl)c3)NC(=O)N(CCC(=O)O)C=C2C1 (single isomer, unassigned) [Example 81]
